Earlier results, collected in US6262108A, “Medicinal use of cromoglycic acid compounds” (Kyoto Pharmaceutical Industries, Ltd., priority 1997, dated 2001).
Counter-ions that a name gives are not always drawn.

How the values were obtained:
[1] = test system: type IV allergic reaction; details: background statement, postulated, with literature references; cited from earlier work
[2] = test system: contact dermatitis and atopic dermatitis; details: background statement on conventional antiallergic agents; cited from earlier work

SMILES	type IV allergic reaction-inhibitory action [1]	therapeutic effects on contact dermatitis and atopic dermatitis [2]
NC1=NCC2c3ccccc3Cc3ccccc3N12 (stereo not drawn) [epinastine hydrochloride]	failure to show a type IV allergic reaction-inhibitory action	either ineffective or fail to show satisfactory therapeutic effects
CCOCCn1c(N2CCCN(C)CC2)nc2ccccc21 [emedastine difumarate]	failure to show a type IV allergic reaction-inhibitory action	either ineffective or fail to show satisfactory therapeutic effects
Cc1ccc2c([nH]c(=O)c3c(=O)cc(C(=O)OCCC(C)C)oc32)c1C [repirinast]	failure to show a type IV allergic reaction-inhibitory action	either ineffective or fail to show satisfactory therapeutic effects
COc1ccc(/C=C/C(=O)Nc2ccccc2C(=O)O)cc1OC [tranilast]	failure to show a type IV allergic reaction-inhibitory action	either ineffective or fail to show satisfactory therapeutic effects
Cc1cccn2c(=O)c(-c3nnn[nH]3)cnc12 [pemirolast potassium]	failure to show a type IV allergic reaction-inhibitory action	either ineffective or fail to show satisfactory therapeutic effects
O=c1[nH]c2ccccc2n1CCCN1CCN(C(c2ccccc2)c2ccccc2)CC1 [oxatomide]	failure to show a type IV allergic reaction-inhibitory action	either ineffective or fail to show satisfactory therapeutic effects
